system: Primary human T cells; test: Cytokine production and degranulation of CDK4 TCR T cells with Zap70-Siglec11-degron CRASH-IT switch co-cultured with NKIRTIL006 melanoma cells, lenalidomide; type: cell-based; conditions: 5 nM lenalidomide; as compared to double hybrid degron containing CRASH-IT switch
Description: FIG. 5: SynFingers fusion proteins enable sensitive control of immune cell functions. A subset of SynFingers identified in the SynFinger library screen were individually validated. (A-H) Primary human T cells were modified with the HLA class I restricted CDK4 TCR plus a Zap70-Siglec11-degron CRASH-IT switch, in which the degron sequence contains the parental zinc finger degron (double hybrid degron depicted in FIGS. 1 and 3), or the parental zinc finger degron with the following mutations: G14N/K21A, G14M/N15R, L17I/K21L, E4R/Q12L, Q12R/K13T, or Q12R/K13V. As a control, primary human T cells modified with the HLA class I restricted CDK4 TCR plus vector control were used. Cells were pretreated with 5 nM lenalidomide or left untreated. Data depict intracellular IFNγ, IL2, TNFα, and cell surface LAMP1 expression of CDK4 TCR+, EGFP intermediate, CD8+ T cells upon co-culture with NKIRTIL006 melanoma cells in the continued absence (E-H) or continued presence of 5 nM lenalidomide (A-D). Dashed horizontal lines indicate cytokine production and degranulation levels of cells modified with a CRASH-IT switch containing the parental zinc finger degron. Error bars represent standard deviation (n=2). SynFinger and vector control groups were compared to the parental zinc finger group using a one-sided t test: *=p<0.05, **=p<0.01, ***=p<0.001, ****=p<0.0001, n.s.=not significant. Data are representative of two independent experiments.
FIG. 6: SynFinger containing CRASH-IT switches enable restoration of cytokine production and degranulation at lower IMID concentrations as compared to zinc finger degrons not according to the invention. (A-D) Primary human T cells modified with the HLA class I restricted CDK4 TCR plus a Zap70-Siglec11-degron CRASH-IT switch, in which the degron sequence contains prior art zinc finger degrons (single hybrid, dual zinc finger degron depicted in FIG. 1), the parental zinc finger degron (double hybrid degron depicted in FIGS. 1 and 3), or the parental zinc finger degron with the following mutations: G14N/K21A, L17I/K21L, or Q12R/K13V, were pretreated with the indicated concentrations of lenalidomide or left untreated. Data depict intracellular IFNγ, IL2, TNFα, and cell surface LAMP1 expression of CDK4 TCR+, EGFP intermediate, CD8+ T cells upon co-culture with NKIRTIL006 melanoma cells in the continued presence or absence of the indicated concentration of lenalidomide (A-D). Error bars represent standard deviation (n=3). Data are representative of two independent experiments. (E) Table depicts EC50Lenalidomide (nM) values of cells in (A-D), and EC50 fold change between the prior art zinc finger degron and a SynFinger containing the Q12R/K13V substitutions.
FIG. 7: Combination of dual substitution sets can further increase lenalidomide sensitivity of SynFinger degron. (A-D) Primary human T cells modified with the HLA class I restricted CDK4 TCR plus a Zap70-Siglec11-degron CRASH-IT switch, in which the degron sequence contains the parental zinc finger degron (double hybrid degron depicted in FIGS. 1 and 3), or the parental zinc finger degron with the following mutations: G14N/K21A, Q12R/K13V, or Q12R/K13V/G14N/K21A, were pretreated with the indicated concentrations of lenalidomide or left untreated. Data depict intracellular IFNγ, IL2, TNFα, and cell surface LAMP1 expression of CDK4 TCR+, EGFP intermediate, CD8+ T cells upon co-culture with NKIRTIL006 melanoma cells in the continued presence or absence of the indicated concentration of lenalidomide (A-D). Error bars represent standard deviation (n=3). Data are representative of two independent experiments.
To test whether the SynFingers that show an improved drug sensitivity in this Jurkat SynFinger library screen also led to an improved sensitivity to low IMID concentrations when expressed in primary human T cells, human peripheral blood T cells were modified to express the CDK4 TCR and indicated SynFinger containing CRASH-IT switch variants (FIG. 5). […]

| Substance | cytokine production at very low lenalidomide concentration |
| --- | --- |
| LQCEICGFTCRQKNNLLRHIALH [SEQ ID NO: 6] | improved cytokine production |
| LQCRICGFTCRLKGNLLRHIKLH [SEQ ID NO: 1] | improved cytokine production |
| LQCEICGFTCRRVGNLLRHIKLH [SEQ ID NO: 9] | improved cytokine production |
| LQCEICGFTCRQKGNLIRHILLH [SEQ ID NO: 14] | improved cytokine production |
| LQCEICGFTCRRTGNLLRHIKLH [SEQ ID NO: 2] | improved cytokine production |
| LQCEICGFTCRQKMRLLRHIKLH [SEQ ID NO: 4] | improved cytokine production |

same assay, conditions: as compared to SynFinger degrons with Q12R/K13V or G14N/K21A

| Substance | sensitivity of the SynFinger towards lenalidomide |
| --- | --- |
| LQCEICGFTCRRVNNLLRHIALH [Q12R/K13V/G14N/K21A, SynFinger degron with quadruple substitutions] | improved the sensitivity |

system: Jurkat cells; test: SynFinger library screen: CD69 expression of CRASH-IT (Zap70-PD1-degron) transduced Jurkat cells with or without lenalidomide, enrichment index from NGS reads; type: cell-based; design: key to EI / EI index (enrichment index): enrichment index; low EI = SynFinger with desired properties; conditions: Jurkat SynFinger screen
Description: […] Jurkat cells were transduced with the SynFinger library (SynFinger containing CRASH-IT switches) at a 12.8% transduction efficiency and sorted for high EGFP expression to enrich transduced cells. For quality control of the SynFinger transduced Jurkat cells, SynFinger sequences were amplified and analyzed by NGS. 10 randomly selected SynFinger encoding DNA sequences or DNA sequences encoding the same SynFinger amino acid sequences but contain 2 nucleotide mismatches due to alternative codon usage were used to assess ability to distinguish true SynFinger sequences from noise in the NGS data. 10/10 SynFinger encoding full-nucleotide sequence match sequences were observed within NGS data whereas the 2 nucleotide mismatch containing sequences were not detected.
Jurkat cells expressing the SynFinger library were treated with 50 nM lenalidomide (a suboptimal dose that activates only ˜50% of cells expressing a CRASH-IT switch containing the parental double hybrid degron in Jurkat cells, as compared to a maximally effective 1000 nM lenalidomide dose) or were mock treated for 24 hours, and subsequently activated with anti-CD3/anti-CD28 antibodies in the presence or absence of 50 nM lenalidomide for 5 hours. Afterwards, cells were stained with IR dye (1:400) and anti-CD69-PE (1:200). Cells were sorted for live (IR dye negative), EGFP high end CD69 high (top 5%) or CD69 low (bottom 5%) expression using Aria Fusion cytometers.
Subsequently, cells were washed with PBS, and cell pellets were frozen at −20° C. until DNA extraction. Genomic DNA was isolated using the DNeasy Blood & Tissue Kit (Qiagen) according to the manufacturer's instructions, using 5×10^6 cells per column. DNA was eluted in 22 μl RNAse free water. Deep sequencing adapters and indexes were added to SynFinger encoding DNA sequences using PCR amplification. Briefly, 3 μg genomic DNA (20 μl), indexed forward and reverse primers (10 μM, 2.5 μl each) and 25 μl NEBNext® High-Fidelity 2×PCR Master Mix were added to the PCR reaction. An optimized PCR reaction (98° C. for 30 s, (98° C. for 10 s, 56° C. for 10 s, 72° C. for 5 s)×25 cycles, 72° C. for 3 min was performed using Eppendorf PCR cyclers.
Indexed PCR products were run on agarose gel, relative DNA concentrations were estimated by measuring band intensity, and 12 indexed PCR reaction products were mixed per MiSeq chip. To increase sequence diversity, samples were mixed with 25% PhiX DNA. In total, 2 MiSeq chips were used (100 bp, single read). To distinguish genuine SynFinger sequences from sequencing errors, results were filtered using a reference list of actual sequences used in SynFinger library design (100% codon match). Sequences with a very low number of reads (sum of all samples below 500 reads) were excluded from analysis.
To identify SynFingers that improve sensitivity of CRASH-IT switches towards lenalidomide while preserving or improving stringency of switch mediated control of T cell activation in the absence of lenalidomide, an enrichment index (EI) value was calculated for each sequence as described below, and SynFingers were ranked according to their EI, with a low EI indicating a SynFinger with desired properties.
CD69-HI and […] read counts from top 100 SynFingers were compared with read counts from the parental double hybrid degron using a two-sided Fisher's exact test to determine enrichment of CD69-HI cells in the presence of lenalidomide and enrichment of CD69-LO cells in the absence of lenalidomide.
To further improve the sensitivity of double hybrid degron towards IMiDs, we performed a high throughput screen using a library of ˜50,200 CRASH-IT variants that encode either single or double amino acid substitutions at the indicated positions of the first hybrid zinc finger sequence, thereby changing 18 amino acids of this zinc finger into any amino acid except cysteine (FIG. 3). […]

| Substance | EI |
| --- | --- |
| LQCEICGFTCRRVGNLLRHIKLH [SEQ ID NO: 9] | 0.006877 |

same assay, conditions: Table 6; dual substitutions in first hybrid zinc finger domain; Jurkat, 50 nM lenalidomide vs mock, CD69-HI/CD69-LO; low EI = desired

| Substance | EI index (enrichment index) |
| --- | --- |
| 57 (LQCEICGFTCRQKMNLVRHIKLH) [compound 57] | 0.02583 |
| 98 (LQCEICGFKCRQKGNLLRHIKRH) [compound 98] | 0.04302 |
| 75 (LQCHICGFTCRQHGNLLRHIKLH) [compound 75] | 0.03442 |
| 4 (LQCEICGFTCRQKMRLLRHIKLH) [compound 4] | 0.00411 |
| 24 (LQCEICGFTCRQKHNLLRHIKNH) [compound 24] | 0.01351 |
| 40 (LQCEICGFTCKQKKNLLRHIKLH) [compound 40] | 0.01915 |
| 13 (LQCEICGFTCRQKGNMLRHIRLH) [compound 13] | 0.008761 |
| 91 (LQCWICGFTCRQKGNLWRHIKLH) [compound 91] | 0.04125 |
| 93 (LQCEICGFTSRQKGRLLRHIKLH) [compound 93] | 0.04175 |
| 74 (WQCEICGFTCRQKGNLLRHIALH) [compound 74] | 0.03362 |
| 83 (LQCWICGFTCRQKGNMLRHIKLH) [compound 83] | 0.03839 |
| 27 (LQCEICGFTCVQKGNLLRHIALH) [compound 27] | 0.01487 |
| 89 (MQCEICGFTCRQKSNLLRHIKLH) [compound 89] | 0.04065 |
| 39 (LQCEICGFTCRQKGRLLRHIKQH) [compound 39] | 0.01901 |
| 5 (LQCEICGFTCRQVKNLLRHIKLH) [compound 5] | 0.004648 |
| 90 (LQCEICGFTCRQHGVLLRHIKLH) [compound 90] | 0.04107 |
| 59 (LQCEICGFTCRLKGNLLLHIKLH) [compound 59] | 0.02682 |
| 14 (LQCEICGFTCRQKGNLIRHILLH) [compound 14] | 0.009984 |
| 85 (WQCMICGFTCRQKGNLLRHIKLH) [compound 85] | 0.03924 |
| 64 (LQCEICGFTCRQKGNLHLHIKLH) [compound 64] | 0.02947 |
| 86 (LQCVICGFQCRQKGNLLRHIKLH) [compound 86] | 0.0393 |
| 58 (LQCRICGFTCRQKGNMLRHIKLH) [compound 58] | 0.02584 |
| 68 (HQCEICGFTCRQKGRLLRHIKLH) [compound 68] | 0.03141 |
| 62 (LQCEICGFTCRQPGNLLRHIKRH) [compound 62] | 0.02767 |
| 11 (LQCPICGFTCRQKSNLLRHIKLH) [compound 11] | 0.008068 |
| 2 (LQCEICGFTCRRTGNLLRHIKLH) [compound 2] | 0.002912 |
| 31 (LQCEICGFTCRQKTRLLRHIKLH) [compound 31] | 0.01686 |
| 63 (LQCWICGFTCRRKGNLLRHIKLH) [compound 63] | 0.02829 |
| 100 (LQCEICGFTCRQKGRLLRHIHLH) [compound 100] | 0.04461 |
